Results on 10 compounds are retold here after patent publication US20040063681A1, “Methods for using gold (III) complexes as anti-tumor and anti-HIV agents” (priority 2002, published 2004).

Where “and” joins values, the source holds several entries; their conditions need not be identical. Equal values may be shown once.

Series [1] deals with T1, HIV-1 reverse transcriptase (Human immunodeficiency virus type 1 group M subtype B, UniProt P04585).
T1 construct: treatment of HIV-1 RT in Lysis buffer (2 ng, 128.7 μL) with Complex 1j
Description: HIV-1 reverse transcriptase activity, ELISA method. The format is biochemical. The following applies: for HIV-1 RT inhibition: drug concentration fixed at 6 μM; for HIV-1 RT inhibition activity compared with the corresponding metal complex (1j, 1k): free-base porphyrins. As for the experimental part: HIV-1 reverse transcriptase activities were measured by an ELISA method (see Eberle et al, J. Virol. Methods, 40:347-356 (1992) performed by incubating the enzyme with digoxigenin-labeled deoxyuridin-5′-triphosphate (dUTP) and the biotin-labeled analogue during reverse transcription starting from the template/primer hybrid poly(A)•oligo(dT)15. After reverse transcription, the newly synthesized DNA was immobilized onto streptavidin-coated ELISA wells, and the incorporation of the dioxigenin-labeled dUTP was assayed by chemiluminescence method. For example, treatment of HIV-1 RT in Lysis buffer (2 ng, 128.7 μL) with Complex 1j (1.3 μL of […] stock solution) dissolved in TBS at 37° C. produced significant RT activity inhibition (˜95%) after 30 min incubation.

The nature of series [2]: Electrochemical measurements (cyclic voltammetry). It counts as physicochemical. Here is the method: Electrochemical measurements. Electrochemical measurements were performed at room temperature after purging with nitrogen using 0.1 M tetrabutylammonium hexafluorophosphate (TBAP)/acetonitrile as supporting electrolyte. The working electrode was a glassy carbon (Atomergic Chemetal V25, geometric area of 0.35 cm^2) electrode and the counter electrode was platinum gauze. A nonaqueous Ag/AgNO3 (0.1 M in acetonitrile) reference electrode was contained in a separate compartment connected to the test solution via fine sintered glass disks. The ferrocenium/ferrocene couple was used as the internal standard. The redox properties of the gold(III) porphyrin complexes in non-aqueous medium (CH2Cl2 with 0.1 M nBu4NPF6) have been studied by cyclic voltammetry with glassy carbon and platinum as the working and counter electrodes, respectively. […] The effect of para-substitution on the electrochemical potentials has been examined by Hammett correlation analysis.

The test system of series [3] is Human Promyelocytic Leukemia (HL-60). Description: MTT cytotoxicity, HL-60. The following applies: growth inhibition. It counts as cell-based. From the text:
(§1) Human promyelocytic leukemia (HL-60), human hepatocellular carcinoma (HepG2), Human cervix epitheloid carcinoma cells (HeLa) and human oral epidermoid carcinoma cells (KB-3-1), were obtained from American Type Culture Collection (ATCC) (Rockville, Md.). The multi-drug-resistant variant KB-V1 cell line was obtained by stepwise selections for vinblastine resistance as described by Shen et al., J. Biol. Chem. 261:7762-7770 (1986)], and was generously provided by Dr Michael Gottesman (NIH, Bethesda, Md.). Human nasopharyngeal carcinoma cells (SUNE1 and its cisplatin resistance variant, CNE1) were derived from poorly differentiated NPC in Chinese patients as described by Gu et al., Chin. J. Cancer 2:270-272 (1983), and were generously provided by Dr S. W. Tsao (The University of Hong Kong, Hong Kong, PRC). Cell culture flasks and 96 well microtitre plates were from Nalge Nunc hit. Culture medium, other medium constituents and phosphate buffered saline (PBS) were obtained from Gibco BRL (Rockville, Md.). Cell Proliferation Kit I (MTT) was purchased from Roche (Mannheim, Germany).
(§2) The anti-cancer activities of the gold(III) porphyrin complexes were evaluated toward some established human cancer cell lines: promyelocytic leukemia (HL-60), hepatocellular carcinoma (HepG2), cervix epitheloid carcinoma (HeLa), epidermoid carcinoma (KB-3-1) and its multi-drug resistant variant (KB-V1), nasopharyngeal carcinoma (SUNE1) and its cisplatin-resistant variant (CNE1). The experiments were carried out by following the MTT procedure (see Mosmann et al., J. Immunol. Methods 65:55-63 (1983). The IC50 values of the gold(III) porphyrin complexes together with that of cisplatin, and KAuCl4 are provided in Table 4a; and the IC50 values of the gold(III) Schiff-base and bis(pyridyl)carboxamide complexes are shown in Table 4b. The cytotoxicity profiles of some selected gold(III) porphyrin complexes toward SUNE1 and its cisplatin-resistant variant CNE1 are also shown in FIG. 7.

The test system of series [4] is Human Hepatocellular Carcinoma (HepG2). The series can be described thus: MTT cytotoxicity, HepG2. The format is cell-based. The following applies: growth inhibition.
Source text: as §1, §2

The test system of series [5] is Human Nasopharyngeal Carcinoma (SUNE1). Description: MTT cytotoxicity, SUNE1. The format is cell-based. As to conditions: for IC50: MTT, growth inhibition. From the text: (§3) Human promyelocytic leukemia (HL-60), human hepatocellular carcinoma (HepG2), Human cervix epitheloid carcinoma cells (HeLa) and human oral epidermoid carcinoma cells (KB-3-1), were obtained from American Type Culture Collection (ATCC) (Rockville, Md.). […] Cell culture flasks and 96 well microtitre plates were from Nalge Nunc hit. Culture medium, other medium constituents and phosphate buffered saline (PBS) were obtained from Gibco BRL (Rockville, Md.). Cell Proliferation Kit I (MTT) was purchased from Roche (Mannheim, Germany).

For series [6], the system named is Human Cervix Epitheloid Carcinoma (HeLa). The series can be described thus: MTT cytotoxicity, HeLa. The format is cell-based. The following applies: for IC50: MTT, growth inhibition.
Source text: as §3

The subject of series [7] is Human Nasopharyngeal Carcinoma (cisplatin resistance, CNE1). Description: MTT cytotoxicity, CNE1. The format is cell-based. The following applies: for IC50: MTT, growth inhibition, cisplatin resistant.
Source text: as §3

Series [8] deals with Human Oral Epidermoid Carcinoma (KB-3-1). The series can be described thus: MTT cytotoxicity, KB-3-1. It counts as cell-based. The following applies: for IC50: MTT, growth inhibition.
Source text: as §3

In series [9] the test system is Human Oral Epidermoid Carcinoma (multi-drug resistance, KB-V-1). The series can be described thus: MTT cytotoxicity, KB-V-1. It counts as cell-based. As to conditions: for IC50: MTT, growth inhibition, multi-drug resistant.
Source text: as §1
The anti-cancer activities of the gold(III) porphyrin complexes were evaluated toward some established human cancer cell lines: promyelocytic leukemia (HL-60), hepatocellular carcinoma (HepG2), cervix epitheloid carcinoma (HeLa), epidermoid carcinoma (KB-3-1) and its multi-drug resistant variant (KB-V1), nasopharyngeal carcinoma (SUNE1) and its cisplatin-resistant variant (CNE1).

In series [10] the test system is calf thymus DNA. The series can be described thus: UV-vis absorption titration with calf thymus DNA. It counts as binding. As to conditions: for hypochromicity / intrinsic binding constant (Kb): Tris buffer. As for the experimental part:
The calf thymus DNA was purchased from Sigma-Aldrich Chemical Co. and was purified by phenol-chloroform extraction. The DNA was dissolved in buffer (5 mM Tris, 5 mM NaCl, pH 7.2). The concentration (per base pair) of calf thymus DNA was determined spectrophotometrically on the basic of ε260, 13,200 M^−1cm^−1bp.
Absorption Titration. The binding interaction of the gold(III) porphyrins to duplex DNA has been studied by UV-vis spectroscopy.
where [ctDNA] is the concentration of DNA, Δεap═|εA−εB| in which εA=Aobs/[complex], and Δε=|εB−εF|. εB and εF correspond to the extinction coefficient of DNA-bound gold(III) porphyrin and the free gold(III) porphyrins, respectively.
The effect of temperature on the intrinsic binding constants was investigated. Using the van't Hoff equation (2): […]

The mark [11] stands for this setting: cyclic voltammetry, 0.1 M nBu4NPF6, glassy carbon, vs Cp2Fe^+/0.

Broadly, the inhibition is the change of the read-out against control, counted positive when it falls. The IC50 is the concentration needed to halve the response being measured. Consider `Cc1cn(C2CC(N=[N+]=[N-])C(CO)O2)c(=O)[nH]c1=O` (stereo not shown) [AZT, 3′-azido-2′,3′-dideoxythymidine], for which the inhibition at 0.008 µM in [1] (AZT 8 nM alone, read-out: HIV-1 RT enzyme inhibition, alone) fell in the range of 17 to 39%. Also, the IC50 in series [1] (ELISA, mean ± SE of at least three determinations, read-out: IC50 HIV-1 RT) came out at 0.069 ± 0.008 µM.
Take `COc1ccc(-c2c3nc(c(-c4ccc(OC)cc4)c4ccc([n-]4)c(-c4ccc(OC)cc4)c4nc(c(-c5ccc(OC)cc5)c5ccc2[n-]5)C=C4)C=C3)cc1.[Au+3].[Cl-]` [Complex 1c]: in [2] (setting [11]), the “Couple I (first reduction couple)” value was −1.02 V and the “Couple II (second reduction couple)” value was −1.51 V. Moreover, in series [2] (relative to Y=H (Complex 1a)), the “ΔE1o (E^0Y − E^0H), couple I” value is given as −0.02 V and the “ΔE2^0 (E^0Y − E^0H), couple II” value was −0.02 V. In series [3], the IC50 was 0.88 µM. Further, in [4], inhibition was half-maximal at 0.76 µM (IC50). For the same compound, in [5], the “IC50 ratio [cisplatin/gold (III) porphyrin complexes] SUNE1” value came to 18.5 and the IC50 was determined as 0.68 µM. In [6], the “IC50 ratio [cisplatin/gold (III) porphyrin complexes] HeLa” value was 17.0 and the IC50 turned out to be 0.66 µM. In series [7], the “IC50 ratio [cisplatin/gold (III) porphyrin complexes] CNE1” value is 53.0 and the IC50 was determined as 0.77 µM.
As to `COc1cc(-c2c3nc(c(-c4cc(OC)c(OC)c(OC)c4)c4ccc([n-]4)c(-c4cc(OC)c(OC)c(OC)c4)c4nc(c(-c5cc(OC)c(OC)c(OC)c5)c5ccc2[n-]5)C=C4)C=C3)cc(OC)c1OC.[Au+3].[Cl-]` [Complex 1f], in [8], the “IC50 ratio [cisplatin/gold (III) porphyrin complexes] KB-3-1” value was found to be 15.1. In addition, the IC50 worked out at 0.87 µM in series [8]; 0.74 µM in [3]; 1.83 µM in series [4]; 0.68 µM in [5]; 0.68 µM in series [6]; 0.71 µM in [9]. Besides, in series [7], the IC50 stood at 0.73 µM. Moreover, the “IC50 ratio [cisplatin/gold (III) porphyrin complexes] SUNE1” value in series [5] is 18.5. In addition, the “IC50 ratio [cisplatin/gold (III) porphyrin complexes] HeLa” value in series [6] came out at 16.5. For the same compound, in series [9], the “IC50 ratio [cisplatin/gold (III) porphyrin complexes] KB-V1” value was determined as 5.62. In series [7], the “IC50 ratio [cisplatin/gold (III) porphyrin complexes] CNE1” value worked out at 55.9.
On to `CCc1c(CC)c2[n]3c1C=c1c(CC)c(CC)c4[n]1[Au]31[n]3c(c(CC)c(CC)c3C=c3c(CC)c(CC)c([n]31)=C2)C=4` [Complex 1h], for which the hypochromicity is 30.1% in [10] (291.4 K); 29.2% in series [10] (296.8 K); 28.0% in series [10] (302.2 K); 26.1% in series [10] (305.5 K); 24.4% in series [10] (311.2 K). The “intrinsic binding constant (Kb)” value in series [10] (291.4 K) is 4.14 × 10^6 dm^3mol^−1; in [10] (296.8 K) it was 2.73 × 10^6 dm^3mol^−1; in [10] (302.2 K), 1.51 × 10^6 dm^3mol^−1; in series [10] (305.5 K), 1.27 × 10^6 dm^3mol^−1; in series [10] (311.2 K), 0.96 × 10^6 dm^3mol^−1. The “ΔS°” value in [10] (binding to calf thymus DNA, van't Hoff analysis) was −17.3 calmol^−1K^−1 and −17.3 ± 0.7 calmol^−1K^−1. The “ΔG° (298 K)” value in series [10] (binding to calf thymus DNA, van't Hoff analysis, 298 K) was −8.2 ± 0.7.
In the case of `N.N.[Cl][Pt][Cl]` [Pt(NH3)2Cl2, reference compound], the IC50 worked out at 13.2 µM in [8]; 16.8 µM in series [3]; 13.5 µM in series [4]; 12.6 µM in series [5]; 11.2 µM in series [6]; 10.2 µM in series [9]. The same compound registered an IC50 in [7] of 40.8 µM.
Turning to `[Au+].[Cl-].c1ccc(P(c2ccccc2)c2ccccc2)cc1` [[(Ph3P)Au^ICl]], the “HIV-1 RT inhibition” value in [1] is listed as 43%.
Turning to `C[n+]1ccc(-c2c3nc(c(-c4cc[n+](C)cc4)c4ccc([nH]4)c(-c4cc[n+](C)cc4)c4nc(c(-c5cc[n+](C)cc5)c5ccc2[nH]5)C=C4)C=C3)cc1` [[H2TMPyP]^4+, Meso-tetrakis(N-methylpyridinium-4-yl)porphyrin], the “HIV-1 RT inhibition activity compared with the corresponding metal complex (1j, 1k)” value in series [1] was “substantially lower HIV-1 RT inhibition activities”.
Still for that read-out and setting: next, `O=S(=O)(O)c1ccc(-c2c3nc(c(-c4ccc(S(=O)(=O)O)cc4)c4ccc([nH]4)c(-c4ccc(S(=O)(=O)O)cc4)c4nc(c(-c5ccc(S(=O)(=O)O)cc5)c5ccc2[nH]5)C=C4)C=C3)cc1` [[H2TPPS]^4−, meso-tetrakis(4-sulfonatophenyl)porphyrin]: “substantially lower HIV-1 RT inhibition activities”.
On to `C[n+]1ccc(-c2c3nc(c(-c4cc[n+](C)cc4)c4ccc([nH]4)c(-c4cc[n+](C)cc4)c4nc(c(-c5cc[n+](C)cc5)c5ccc2[nH]5)C=C4)C=C3)cc1.[Cl-].[Cl-].[Cl-].[Cl-].[Zn]` [[Zn^II(TMPyP)]Cl4], for which the “HIV-1 RT inhibition” value in series [1] amounted to 32%.
`CCCC[N+](CCCC)(CCCC)CCCC.[Au+3].[Cl-].[Cl-].[Cl-].[Cl-]` [nBu4N[AuCl4], Tetrabutylammonium tetrachloroaurate, reference compound]: the IC50 is 10.3 µM in series [8]; 9.71 µM in series [3]; 11.2 µM in series [4]; 9.94 µM in series [5]; 8.41 µM in [6]; 11.5 µM in series [7].
